Data on 92 molecules can be found in ChEMBL document CHEMBL3507680, “University of Dundee, Gates Library screen for HepG2 cell viability”.

The data set in a line: Human HepG2 cell viability assay in 384 well format. The following applies: HepG2 cells, read-out: Inhibition. The format is toxicity, cell-based. Also noted: dose 125 nL, time 70.5 hour; cytotoxicity at 70.5 h: concentration not given beside the values.
Consider `Cc1ccc(-c2cn3c(n2)CO[C@@H](CNCc2cccnc2)C3)cc1`, for which the cytotoxicity at 70.5 h came out at 11%.
Take `C[C@@H](NC(=O)c1cccnc1)c1onc(-c2ccccc2)c1C(=O)O`: the cytotoxicity at 70.5 h was -4.96%.
Take `CNC(=O)C(C)(C)N1CCC[C@H]1C(=O)NCC1CC1`: the cytotoxicity at 70.5 h was 9.57%.
Consider `c1ccc2c(Cc3nnc([C@H]4CCN(C5CCOCC5)C4)o3)c[nH]c2c1`, for which the cytotoxicity at 70.5 h was -0.535%.
Regarding `CC(=O)N1CCOC[C@H](OCC(=O)N(C)C)C1`, the cytotoxicity at 70.5 h worked out at 0.496%.
`CN1CCN2C(=O)N(C3CCCCC3)C[C@H]2C1`: the cytotoxicity at 70.5 h was -5.56%.
For `CC(C)(O)c1cc(CC2(NCc3ccco3)COC2)no1`, the cytotoxicity at 70.5 h is -7.88%.
For the molecule `Cc1cccc2c1nc1n2[C@@H](CNC(=O)c2cnccn2)COC1`, the cytotoxicity at 70.5 h came to 12.8%.
As for `Cc1cccc2c1nc1n2[C@@H](CNC(=O)CCC(=O)O)COC1`, the cytotoxicity at 70.5 h was -4.85%.
Then `COc1ccccc1C(=O)NC[C@H]1COCc2nc3c(C)cccc3n21`, with -1.28%; and `O[C@@H]1C[C@@H](c2nc(Cc3ccccc3)no2)N(Cc2ncc[nH]2)C1`, with 9.72%; and `Cc1ccc(CN2C[C@H]3CN(C(=O)c4ccno4)CCN3C2=O)cc1`, with 6.23%.
Consider `O=C1NC[C@H]2CN(Cc3ccnc4ccccc34)CCN12`, for which the cytotoxicity at 70.5 h was -6.05%.
In the case of `CN(C)C(=O)CO[C@H]1COCCN(C2CCOCC2)C1`, the cytotoxicity at 70.5 h is -4.86%.
Then `CC(C)(C)c1coc([C@@H]2COCCN2CC2CC2)n1`, with -0.839%.
In the case of `CCCOc1cc(C)c2c(c1C)C[C@H]([C@H](C)C(=O)O)CC2`, the cytotoxicity at 70.5 h is -3.42%.
For `COc1ccc2c(c1)nc1n2[C@@H](CNC(=O)c2ccccn2)COC1`, the cytotoxicity at 70.5 h was -7.73%.
Turning to `Cn1c(CO[C@H]2CN(S(C)(=O)=O)C[C@H]2F)nc2ccccc21`, the cytotoxicity at 70.5 h was -1.31%.
Take `FC(F)(F)c1ccc(CNC[C@H]2COCc3nc4cccnc4n32)cc1`: the cytotoxicity at 70.5 h is -3.68%.
On to `Cc1noc([C@@H]2C[C@H](NS(=O)(=O)Cc3ccccc3)CN2C)n1`, for which the cytotoxicity at 70.5 h is -3.9%.
For the molecule `O=C1CO[C@H]2CN(Cc3c[nH]c4ccccc34)C[C@H]2N1`, the cytotoxicity at 70.5 h was determined as 7.73%.
With `COc1ccc2c(c1)nc1n2[C@@H](CNCc2ncccc2C)COC1`, the cytotoxicity at 70.5 h was -5.69%.
As to `c1ccc2c(c1)nc1n2[C@@H](CNCc2nccs2)COC1`, the cytotoxicity at 70.5 h is -19.6%.
Turning to `O=C(C1CC1)N1C[C@@H](F)[C@@H](OCc2nc3ccccc3o2)C1`, the cytotoxicity at 70.5 h was found to be 0.185%.
In the case of `COCCOc1ccnc(-c2noc([C@@H]3CCCN3C(C)C)n2)c1`, the cytotoxicity at 70.5 h was -5.66%.
The value for `NC(=O)c1cccc2nc([C@H]3CCN(Cc4ccccc4F)C3)[nH]c12` was -3.45%.
As for `CC(C)NC(=O)N[C@H]1C[C@@H](Cc2cc(CN3CCOCC3)on2)C1(C)C`, the cytotoxicity at 70.5 h was -8.22%.
On to `COCCN1C(=O)CO[C@H]2CN(Cc3ccccc3OC)C[C@H]21`, for which the cytotoxicity at 70.5 h is -13.3%.
Then `COC(=O)c1ccc2nc(CO[C@H]3CN(CC4CC4)C[C@H]3F)[nH]c2c1`, with 1.07%; and `CC(=O)NC[C@H]1COCc2nc3c(C)cccc3n21`, with 10.8%; and `Cc1ccc2[nH]c(CO[C@H]3CN(C(=O)C4CC4)C[C@H]3F)nc2c1`, with 3.41%.
With `CS(=O)(=O)c1ccc(CNC[C@H]2COCc3nc4cccnc4n32)cc1`, the cytotoxicity at 70.5 h is -1.94%.
In the case of `c1cnc2c(c1)nc1n2[C@@H](CNCc2nccs2)COC1`, the cytotoxicity at 70.5 h was -8.24%.
The value for `Cc1cc2nc(CO[C@H]3CN(C)C[C@H]3F)[nH]c2cc1C` was -0.513%; that for `CC(=O)N1CCC(N[C@@H]2CO[C@H](CNC(=O)C3CCCC3)[C@H]2O)CC1` was -5.38%.
For `O=C1N(c2ccccc2)C[C@H]2CN(C3CCC3)CCN12`, the cytotoxicity at 70.5 h is -3.05%.
For the molecule `COCCN1C[C@H]2CN(Cc3cccc(OC(F)(F)F)c3)CCN2C1=O`, the cytotoxicity at 70.5 h was -7.08%.
As to `COCCN1C[C@H]2CN(Cc3cccc(OC)c3)CCN2C1=O`, the cytotoxicity at 70.5 h is -7.25%.
Consider `O=C1N(Cc2cccnc2)C[C@H]2CN(S(=O)(=O)c3ccccc3)CCN12`, for which the cytotoxicity at 70.5 h stood at 1.73%.
For `O[C@H]1COCCN(Cc2cccc3c2OCO3)C1`, the cytotoxicity at 70.5 h is -4.2%.
The value for `COc1ccc(O[C@H]2COCCN(Cc3c[nH]c4ccccc34)C2)cc1` was 1.44%; that for `CO[C@H]1COCCN(C(=O)c2ccc(F)cc2)C1` was -3.92%.
As to `Cc1ccc(S(=O)(=O)NC[C@H]2OC[C@@H](NCc3ccccc3)[C@@H]2O)cc1`, the cytotoxicity at 70.5 h is -10%.
For `O=C1N(Cc2ccccc2)C[C@H]2CN(Cc3ccccc3Cl)CCN12`, the cytotoxicity at 70.5 h is -1.14%.
As for `CS(=O)(=O)N1CCN2C(=O)N(C3CCCCC3)C[C@H]2C1`, the cytotoxicity at 70.5 h was 7.82%.
For the molecule `O=C1NC[C@H]2CN(Cc3ccccn3)CCN12`, the cytotoxicity at 70.5 h is 0.693%.
For `CN1C[C@H]2CN(C(=O)c3ccc4c(c3)OCO4)CCN2C1=O`, the cytotoxicity at 70.5 h is -8.59%.
Consider `CS(=O)(=O)N1CCN2C(=O)N(C3CCOCC3)C[C@H]2C1`, for which the cytotoxicity at 70.5 h was 12.9%.
For `COc1ccc(-c2cn3c(n2)CO[C@@H](CNCc2ccccn2)C3)cc1`, the cytotoxicity at 70.5 h was -0.00582%.
The value for `c1cncc(O[C@H]2COCCN(C3CCC3)C2)c1` was 1.49%; that for `CC(C)C(=O)N1CCOC[C@H](Oc2ccc(C(F)(F)F)cc2)C1` was -1.93%; that for `COc1ccc(CN2CCOC[C@H](OCC(=O)N(C)C)C2)cc1` was -1.39%.
Regarding `COc1ccc(-c2noc([C@@H](C)NS(=O)(=O)CC(C)C)c2C(=O)O)cc1`, the cytotoxicity at 70.5 h is -10.7%.
The value for `C[C@@H](NC(=O)c1cnccn1)c1c(-c2ccc(F)cc2)noc1C(=O)O` was -1.48%; that for `CC(C)N1CCOC[C@H]1c1nc(C(C)(C)C)c[nH]1` was 0.329%; that for `CC(C)(C)c1coc([C@@H]2COCCN2Cc2ccccc2)n1` was 0.308%.
In the case of `c1cc(-c2c[nH]c([C@@H]3COCCN3Cc3ncc[nH]3)n2)ccn1`, the cytotoxicity at 70.5 h was 1.76%.
Turning to `c1cc(-c2c[nH]c([C@@H]3COCCN3Cc3csnn3)n2)ccn1`, the cytotoxicity at 70.5 h stood at 12.8%.
As to `CC(C)NC(=O)N1CCCC2(CCCCN2)C1` (configuration not stated), the cytotoxicity at 70.5 h was -7.7%.
With `CCC(CC)C(=O)N1CCOC2(CNC2)C1`, the cytotoxicity at 70.5 h is 6.77%.
Regarding `CC(=O)N1CC2C[C@]2(NC(=O)c2ccco2)C1` (some centres not stated), the cytotoxicity at 70.5 h stood at 18.4%.
Turning to `CC(C)NC(=O)N1CCC2(CC1)[C@@H]1CN(C(=O)N(C)C)C[C@@H]1C(=O)N2C`, the cytotoxicity at 70.5 h was -7.71%.
Then `CC(=O)N1CCC2(CC1)[C@@H]1CN(C(=O)N(C)C)C[C@@H]1C(=O)N2C`, with -7.5%.
`CC(C)C(=O)NC1COC2(CCN(C(=O)c3ccc[nH]3)CC2)C1` (configuration not stated): the cytotoxicity at 70.5 h was -7.92%.
In the case of `CC(=O)N1C[C@@H]2C(=O)N(C)C3(CCN(C(=O)C(C)C)CC3)[C@@H]2C1`, the cytotoxicity at 70.5 h was -7.63%.
The value for `CCN1C(=O)[C@H]2CN(Cc3cccnc3)C[C@H]2C12CCN(C(C)=O)CC2` was -10.7%; that for `CN(C)C(=O)CCC(=O)N1CCC2(CC1)COC2` was 12.8%.
For the molecule `CC(C)NC(=O)N1CCOC2(CNC2)C1`, the cytotoxicity at 70.5 h is -4.25%.
For `O=C1CCC2(CCCN(C(=O)c3cnccn3)CC2)N1` (configuration not stated), the cytotoxicity at 70.5 h turned out to be 1.43%.
Then `CC(=O)N1CCC2(CC1)NC(=O)[C@H]1CN(Cc3cccnc3)C[C@H]12`, with 18.4%; and `O=C1CO[C@@H]2CN(C(=O)CCc3ccccc3)C[C@H]2N1`, with -5.06%.
On to `CN1CCC(Oc2ccc(NC(=O)c3cccc(Cl)c3)cc2)CC1`, for which the cytotoxicity at 70.5 h was -3.56%.
For `CCC(C(=O)NC)N(c1cccc(C)c1)S(C)(=O)=O` (configuration not stated), the cytotoxicity at 70.5 h turned out to be 11.9%.
`CC(C)(N)CN1CCC(c2nnc(CN3CCCC3)n2C2CC2)CC1`: the cytotoxicity at 70.5 h was -0.439%.
Regarding `CCC(=O)N1CCC(c2nnc(Cn3cncn3)n2C2CC2)CC1`, the cytotoxicity at 70.5 h turned out to be 6.31%.
Take `CCCS(=O)(=O)N1CCN(c2ccnc(N3CCCC3)n2)CC1`: the cytotoxicity at 70.5 h was -7.03%.
The value for `COc1ccc(NC(=O)Cn2nc(C)c(C)cc2=O)cc1OC` was 12.7%; that for `COc1ccc(CNC[C@@]2(COc3cccnc3)C[C@@H](O)[C@@H](O)C2)cc1` was 10.2%.
Then `COCCOC[C@]1(CNCc2cccc(OC)c2)C[C@@H](O)[C@@H](O)C1`, with 0.877%.
As to `O=C(NC[C@@]1(COc2cnccn2)C[C@@H](O)[C@@H](O)C1)C1CCCC1`, the cytotoxicity at 70.5 h came out at 10.3%.
As to `C[C@@H](NC(=O)c1ccc(Cl)cc1)c1onc(-c2cccnc2)c1C(=O)O`, the cytotoxicity at 70.5 h was -6%.
As to `O=C(NC[C@@]1(COc2cnccn2)C[C@@H](O)[C@@H](O)C1)C1CCOCC1`, the cytotoxicity at 70.5 h is -1.95%.
`Cc1cc(C(=O)N[C@H](C)c2onc(-c3cccnc3)c2C(=O)O)c(C)o1`: the cytotoxicity at 70.5 h is -2.03%.
On to `O[C@@H]1C[C@@](CNCc2cccc(Cl)c2)(COc2cnccn2)C[C@@H]1O`, for which the cytotoxicity at 70.5 h was -12%.
Consider `O[C@@H]1C[C@@](CNCC2CC2)(COc2cccnc2)C[C@@H]1O`, for which the cytotoxicity at 70.5 h was -7.73%.
The value for `O[C@@H]1C[C@@](CNCc2ccc(F)cc2)(COc2cccnc2)C[C@@H]1O` was 0.0431%; that for `O[C@@H]1C[C@@](CNCc2ccccn2)(COc2cccnc2)C[C@@H]1O` was -8.64%.
As to `CN(C)C(=O)C1CCC2(CCNCC2)C1` (configuration not stated), the cytotoxicity at 70.5 h is -2.3%.
For `CCN1CC2(CNCCN(C(=O)Nc3ccccc3)C2)CC1=O` (configuration not stated), the cytotoxicity at 70.5 h was found to be 2.39%.
Turning to `CN(Cc1ccco1)C1CCC12CCN(C(=O)c1ccnnc1)CC2` (configuration not stated), the cytotoxicity at 70.5 h was 5.1%.
As for `Cc1cc(CN2CC[C@H]3[C@H]2CCN3S(C)(=O)=O)oc1C`, the cytotoxicity at 70.5 h is -8.76%.
Consider `CN(Cc1ccco1)C1CCC12CCN(C(=O)c1ccco1)CC2` (configuration not stated), for which the cytotoxicity at 70.5 h is -0.239%.
